Test results reported in patent EP4731189B1, “SOLID ORAL FORMULATION OF PUDAFENSINE” (Initiator Pharma A/S, priority 2023, dated 2024).
≈ marks a conversion by molar mass, not a printed value.

Experiments:
[1] = Solubility of IP2015 in aqueous and non-aqueous vehicles (visual, HPLC content); type: physicochemical
Procedure: Solubility of IP2015 was determined in both aqueous and non-aqueous vehicles. In non-aqueous liquids, the solubility was visually confirmed in progressive dilutions. The solubility of IP2015 in pH specific aqueous solutions was evaluated, the solubility was visually confirmed, and the content was evaluated by HPLC. Table 2. Solubility of IP2015 in different media.

[2] = test system: male subjects with erectile dysfunction (ED); assay: Phase IIb study in erectile dysfunction, IIEF-15 questionnaire efficacy; type: in vivo, humans
Excerpt: (§1) The study investigated the effects of repeat single oral doses of IP2015 on male subjects with erectile dysfunction (ED) on ability to develop and maintain an erection, as well as safety and tolerability of single oral doses of IP2015, effects on penile rigidity and tumescence during visual stimulation, effects on sperm count and motility, and any possible relationship between plasma levels of IP2015, its efficacy and safety.
(§2) 130 subjects were divided into 3 groups upon which the study was conducted in parallel. Each subject was dosed on four occasions with either 5 mg IP2015, 10 mg IP2015 or matched placebo. In each group, subjects were randomized evenly to each of the three study treatments and received the same treatment at each visit.
The study lasted approximately 8 weeks and consisted of the following: • A screening visit (up to 21 days prior to the baseline visit) • A baseline visit (Day -7) • Outpatient visits on Week 1 (Day 1), Week 2, Week 3 and Week 4 • A follow-up visit a minimum of 7 to 10 days after their final dose.
(§3) On Day -7, and at Week 1 (Day 1), Week 2, Week 3, Week 4 and Follow-up visits, all groups were asked to complete the IIEF-15 questionnaire. Group 2 was asked to complete a Visual Stimulation Assessment using a RigiScan Plus Monitor on Day -7, Week 1 (Day 1) and Week 4. Group 2 was also required to provide blood samples for pharmacokinetic assessment on Week 1 (Day 1) and Week 4. Group 3 was required to provide semen samples on Day -7 and Week 4.
The patients were otherwise healthy male subjects with ED as determined from an IIEF-5 score of ≤16, with a body mass index of 18 to 35 kg/m^2 (inclusive), of any ethnic origin. Subjects were aged between 18 to 59 years, inclusive.
(§4) There were three potential study treatments of 5 mg IP2015, 10 mg IP2015 or matched placebo. In each group, subjects were randomized evenly to each of the three study treatments and received the same treatment on each visit. IP2015 or matched placebo was administered once in the morning of Week 1 (Day 1), Week 2, Week 3, and Week 4 as an oral solution in the fasted state. The dose was taken with 240 mL of water at room temperature. Subjects had fasted 2 hours prior to dosing until 4 hours post-dose. Water was allowed ad libitum except for 1 hour before and 1 hour after dosing.
(§5) Efficacy was assessed through the International Index of Erectile Function (IIEF)-15 questionnaire. The change from baseline in responses to questions of the IIEF-15 questionnaire, including questions regarding erectile function, orgasmic function, sexual desire, intercourse satisfaction and overall satisfaction domain scores, was determined at different time points of the study. RigiScan assessments during the stimulus assessment, and sperm count and motility by semen sample collection was used for efficacy evaluation. Safety was assessed through AE reporting, 12-lead ECG, vital signs, physical examinations, and clinical laboratory evaluations. Pharmacokinetics was assessed by blood sampling.
The results are means±SE. The statistical differences were performed with Mixed Model Repeated Measures (MMRM).

[3] = test system: male subjects with erectile dysfunction (ED); assay: Phase IIb study in erectile dysfunction, treatment-emergent adverse events and semen analysis; type: in vivo, humans
Excerpt: as §1, §2, §3, §4, §5

[4] = pH 5.8 Potassium Phosphate buffer
[5] = pH 6.8 Potassium Phosphate buffer
[6] = pH 7.5 Potassium Phosphate buffer
[7] = 5 mg IP2015 oral solution, overall score, tendency to difference

solubility ([1]; 0.1n hcl, pH 1.2 HCl (0.1N)): 17 µg/mL (≈ 0.0564 mM)
Inference (Ph.Eur) ([1]; N,N-dimethyl acetamide): Very slightly soluble
Inference (Ph.Eur) ([1]; N-methyl-2-pyrrolidone): Very slightly soluble
solubility ([1]; aqueous solutions across physiological pH): < 1000 µg/mL
Inference (Ph.Eur) ([1]; dimethyl sulfoxide): Slightly soluble
solubility ([1]; dimethyl sulfoxide): 5000 to 10000 µg/mL (≈ 16.6 to 33.2 mM)
Inference (Ph.Eur) ([1]; ethanol): Very slightly soluble
solubility ([1]; ethanol): < 1000 µg/mL
Inference (Ph.Eur) ([1]; glycerine): Very slightly soluble
solubility ([1]; glycerine): < 1000 µg/mL
solubility ([1]; n,n-dimethyl acetamide): < 1000 µg/mL
solubility ([1]; n-methyl-2-pyrrolidone): < 1000 µg/mL
Inference (Ph.Eur) ([1]; pH 1.2 HCl (0.1N)): Very slightly soluble
Inference (Ph.Eur) ([1]; pH 3.0 Acetate buffer): Slightly soluble
solubility ([1]; pH 3.0 Acetate buffer): 1170 µg/mL (≈ 3.89 mM)
Inference (Ph.Eur) ([1]; pH 3.0 Citrate buffer): Very slightly soluble
solubility ([1]; pH 3.0 Citrate buffer): 839 µg/mL (≈ 2.78 mM)
Inference (Ph.Eur) ([1]; pH 4.0 Citrate buffer): Very slightly soluble
solubility ([1]; pH 4.0 Citrate buffer): 849 µg/mL (≈ 2.82 mM)
Inference (Ph.Eur) ([1]; pH 4.5 Acetate buffer): Very slightly soluble
solubility ([1]; pH 4.5 Acetate buffer): 981 µg/mL (≈ 3.26 mM)
Inference (Ph.Eur) [1, 4]: Very slightly soluble
solubility [1, 4]: 104 µg/mL (≈ 0.345 mM)
Inference (Ph.Eur) [1, 5]: Very slightly soluble
solubility [1, 5]: 146 µg/mL (≈ 0.484 mM)
Inference (Ph.Eur) [1, 6]: Very slightly soluble
solubility [1, 6]: 84 µg/mL (≈ 0.279 mM)
Inference (Ph.Eur) ([1]; polyethylene glycol 400): Very slightly soluble
solubility ([1]; polyethylene glycol 400): < 1000 µg/mL
Inference (Ph.Eur) ([1]; propylene glycol): Slightly soluble
solubility ([1]; propylene glycol): 1000 to 5000 µg/mL (≈ 3.32 to 16.6 mM)
Inference (Ph.Eur) ([1]; purified water): Very slightly soluble
solubility ([1]; purified water): 738 µg/mL (≈ 2.45 mM)
Structure (SMILES): COc1cc2ccc(O[C@@H]3C[C@H]4CC[C@@H](C3)N4)cc2oc1=O [IP2015, Exo-7-[(-8-azabicyclo[3.2.1]octan-3-yl)oxy]-3-methoxy-chromen-2-one]
overall response to questions of IIEF-15, p versus baseline ([2]; 5 mg IP2015 oral solution, at follow-up, significant): 0.0046
overall response to questions of IIEF-15, p versus placebo ([2]; 5 mg IP2015 oral solution, at follow-up, tendency): 0.07
Q4 in the IIEF-15, overall score, p compared to placebo ([2]; 5 mg IP2015 oral solution, overall score, no difference): 0.44
overall response to questions of IIEF-15, overall score, p versus baseline ([2]; 5 mg IP2015 oral solution, overall score, significant): 0.0032
overall response to questions of IIEF-15, overall score, p versus placebo ([2]; 5 mg IP2015 oral solution, overall score, tendency): 0.10
Q3 in the IIEF-15, overall score, p versus baseline [2, 7]: 0.07
Q3 in the IIEF-15, overall score, p versus placebo [2, 7]: 0.07
Q4 in the IIEF-15, overall score, p versus baseline [2, 7]: 0.056
Q3 in the IIEF-15, p versus baseline ([2]; 5 mg IP2015 oral solution, week 3, MMRM, significant): 0.046
Q3 in the IIEF-15, p versus placebo ([2]; 5 mg IP2015 oral solution, week 3, change from baseline, MMRM, significant): 0.034
overall IIEF-15 score, score change ([2]; low dose (5 mg) of IP2015, called clinically significant): 2
Any TEAE, figure after the comma ([3]; IP2015 5mg, N=42): 61
Any TEAE, n (%) ([3]; IP2015 5mg, N=42): 32 (76.2 %)
TEAE Dizziness, figure after the comma ([3]; IP2015 5mg, N=42): 3
TEAE Dizziness, n (%) ([3]; IP2015 5mg, N=42): 3 (7.1 %)
TEAE Headache, figure after the comma ([3]; IP2015 5mg, N=42): 15
TEAE Headache, n (%) ([3]; IP2015 5mg, N=42): 11 (26.2 %)
TEAE Mild, figure after the comma ([3]; IP2015 5mg, N=42): 56
TEAE Mild, n (%) ([3]; IP2015 5mg, N=42): 29 (69.0 %)
TEAE Moderate, figure after the comma ([3]; IP2015 5mg, N=42): 5
TEAE Moderate, n (%) ([3]; IP2015 5mg, N=42): 3 (7.1%)
TEAE Nausea, figure after the comma ([3]; IP2015 5mg, N=42): 1
TEAE Nausea, n (%) ([3]; IP2015 5mg, N=42): 1 (2.4 %)
TEAE Related*, figure after the comma ([3]; IP2015 5mg, N=42): 19
TEAE Related*, n (%) ([3]; IP2015 5mg, N=42): 10 (23.8 %)
TEAE Severe ([3]; IP2015 5mg, N=42): 0
Any TEAE, figure after the comma ([3]; IP2015 10 mg, N=43): 141
Any TEAE, n (%) ([3]; IP2015 10 mg, N=43): 34 (79.1 %)
TEAE Dizziness, figure after the comma ([3]; IP2015 10 mg, N=43): 15
TEAE Dizziness, n (%) ([3]; IP2015 10 mg, N=43): 12 (27.9 %)
TEAE Headache, figure after the comma ([3]; IP2015 10 mg, N=43): 27
TEAE Headache, n (%) ([3]; IP2015 10 mg, N=43): 16 (37.2 %)
TEAE Mild, figure after the comma ([3]; IP2015 10 mg, N=43): 132
TEAE Mild, n (%) ([3]; IP2015 10 mg, N=43): 33 (76.7%)
TEAE Moderate, figure after the comma ([3]; IP2015 10 mg, N=43): 9
TEAE Moderate, n (%) ([3]; IP2015 10 mg, N=43): 7 (16.3%)
TEAE Nausea, figure after the comma ([3]; IP2015 10 mg, N=43): 15
TEAE Nausea, n (%) ([3]; IP2015 10 mg, N=43): 8 (18.6 %)
TEAE Related*, figure after the comma ([3]; IP2015 10 mg, N=43): 84
TEAE Related*, n (%) ([3]; IP2015 10 mg, N=43): 23 (53.5 %)
TEAE Severe ([3]; IP2015 10 mg, N=43): 0
severe side effects ([3]; any of the doses (5 mg, 10 mg)): No severe side effects were observed
Treatment-emergent adverse effects ([3]; low-dose (5 mg)): comparable to the placebo group
